The test concerns the target cGMP-specific 3',5'-cyclic phosphodiesterase (Cavia porcellus). As to the kind of experiment: Inhibition in vitro of Phosphodiesterase 5 isolated from guinea pig lung.

In BindingDB's records for doi:10.1021/jm9509096 (1996) one finds IC50 data, which are given here for nine molecules.

Molecules are shown by their SMILES. pIC50: −log10 of the molar value. Where a name gives a salt, the structure may show the parent alone.

As for `COc1cc2cc(CO)c(CO)c(-c3cc(OC)c(OC)c(OC)c3)c2cc1OC` [[3-Hydroxymethyl-6,7-dimethoxy-1-(3,4,5-trimethoxy-phenyl)-naphthalen-2-yl]-methanol], the pIC50 is 5.52.

`COc1cc2cc(CO)c(CO)c(-c3cc(OC)c(OC)c(C(=O)N(C)C)c3)c2cc1OC` [5-(2,3-Bis-hydroxymethyl-6,7-dimethoxy-naphthalen-1-yl)-2,3-dimethoxy-N,N-dimethyl-benzamide]: the negative logarithm of the IC50 (pIC50) is 4.52.

For `COc1cc(-c2c(CO)c(CO)cc3cc4c(cc23)OCO4)cc(OC)c1OC` [[7-Hydroxymethyl-5-(3,4,5-trimethoxy-phenyl)-naphtho[2,3-d][1,3]dioxol-6-yl]-methanol], the pIC50 was below 4.52.

Regarding `COc1ccc2c(-c3cc(OC)c(OC)c(OC)c3)c(CO)c(CO)cc2c1` [[3-Hydroxymethyl-6-methoxy-1-(3,4,5-trimethoxy-phenyl)-naphthalen-2-yl]-methanol], the pIC50 was 5.10.

As to `COc1cc2cc(CO)c(CO)cc2cc1OC` [(3-Hydroxymethyl-6,7-dimethoxy-naphthalen-2-yl)-methanol], the pIC50 was below 4.00.

`COc1cc2cc(CO)c(CO)c(-c3cc(OC)c(OC)c(S(C)(=O)=O)c3)c2cc1OC` [[3-Hydroxymethyl-1-(3-methanesulfonyl-4,5-dimethoxy-phenyl)-6,7-dimethoxy-naphthalen-2-yl]-methanol] showed a negative logarithm of the IC50 (pIC50) of 4.28.

Molecule `COc1cc2cc(CO)c(CO)c(-c3cc[nH]c(=O)c3)c2cc1OC` [4-(2,3-Bis-hydroxymethyl-6,7-dimethoxy-naphthalen-1-yl)-3H-pyridin-2-one] showed a pIC50 of 5.00.

Molecule `CCOc1cc2cc(CO)c(CO)c(-c3cc(N)c(OC)c(OC)c3)c2cc1OCC` [[1-(3-Amino-4,5-dimethoxy-phenyl)-6,7-diethoxy-3-hydroxymethyl-naphthalen-2-yl]-methanol; hydrochloride] had a negative-log IC50 (pIC50) of 4.52.

`COc1cc2cc(CO)c(CO)c(Cc3cc(OC)c(OC)c(OC)c3)c2cc1OC` [[3-Hydroxymethyl-6,7-dimethoxy-1-(3,4,5-trimethoxy-benzyl)-naphthalen-2-yl]-methanol] showed a pIC50 of 4.70.
